Assays:
mice [1] = test: Adacel (Tdap vaccine) immunogenicity in mice, anti-PT antibody in serum; type: in vivo; details: for augmentation of antibody levels compared to immunization with Adacel alone: 2 weeks after second SC immunization, adjuvant given with Adacel
Description: (§1) Adacel doses containing 1, 0.3, and 0.1 mcg of pertussis toxin per mouse were administered subcutaneously (SC, with no immunological adjuvant), using 2 vaccinations 4 weeks apart, resulting in a mean of 1,618 mcg, 898 mcg, and 107 mcg respectively of anti-PT antibody per ml of serum drawn 2 weeks after the second vaccination. The 0.1 mcg dose was indistinguishable from unvaccinated controls (96 mcg/ml). A 0.5 mcg dose of Adacel was selected for a pharmacology/toxicology (pharm/tox) study. The serological results for this study are summarized in FIG. 3 of the present application.

mice [2] = test: Engerix-B (hepatitis B vaccine) immunogenicity in mice, anti-HBsAg antibody; type: in vivo
Description: (§2) Experiments were conducted with Engerix-B (HBV adult vaccine) in groups of 10 mice. Initially 3 mcg, 1 mcg, 0.3 mcg, 0.1 mcg, and 0.03 mcg Engerix-B doses per mouse were tested. Mean resulting anti-HBsAg antibody levels were 92,512 mcg/ml, 64,255 mcg/ml, 24,847 mcg/ml, 3,682 mcg/ml, and 910 mcg/ml respectively, with the 0.03 dose being indistinguishable from controls (821 mcg/ml). The 0.3 mcg dose of Engerix-B was selected for further studies and this dose was used mixed with various doses of TiterQuil-1055 (TQL-1055 / Compound I-4). The resulting geometric mean antibody concentrations are summarized in FIG. 4 of the present application.

[3] = Body weight of mice in the Engerix-B / TiterQuil-1055 dose study; type: in vivo
Description: as §2

mice [4] = type: in vivo; details: for changes in blood chemistry or hematology results: mice vaccinated SC days 1 and 15; for weight loss (body weight): mice, 50 mcg TiterQuil-1055, 20 mcg QS-21; for liver histopathology (hepatocellular cytoplasmic vacuolization / vacuolar changes): sacrificed day 22, 33 tissues examined
Description: as §1
A pharm/tox study was conducted in 7 groups of 5 mice: 1) PBS alone, 2) 50 mcg TiterQuil-1055, 3) 20 mcg QS-21, 4) Adacel 2.5 mcg pertussis toxin (⅕ the human dose), 5) Adacel + QS-21 (20 mcg QS-21), 6) Adacel + TiterQuil-1055 (50 mcg), 7) Adacel + TiterQuil-1055 (50 mcg). Mice were vaccinated SC on days 1 and 15, weighed daily, and bled and sacrificed on day 22, except for group 7 which was sacrificed on day 29. […] Histopathology of 33 different tissues was performed on all mice. Detected abnormalities were restricted to the liver. […] This abnormality was short lived and was no detected in group 7, which was sacrificed one week after groups 1-6.

hemolysis = test: Hemolytic assay; type: cell-based
Description: FIG. 5 depicts data showing the hemolytic activity of QS-21 at 2uM, 5uM and 20uM, and Compound 26 (TiterQuil-1-0-5-5 / TQL-1055) at 20uM, 100uM and 200uM. % Hemolytic activity reported as % of Triton-X100/SDS lysis control.
(§3) Natural and synthetic QS-21 (SQS-21 or SAPONEX®) and a variety of analogs were tested for hemolytic activity. […] FIG. 5 depicts results a hemolytic assay performed with TiterQuil-1055. In a companion toxicity study three days after immunization, animals that received 20 mcg of QS-21 have lost 8-10% of their body mass on average, whereas PBS, TiterQuil-101 and TiterQuil-1055 recipients have gained 5% on average (normal weight gain in young mice). Without being bound by theory, hemolytic activity may be a direct result of degradation of QS-21 under physiologic conditions and TiterQuil-1055′s lack of hemolytic activity may result from improved stability.

[5] = Companion toxicity study, body mass three days after immunization; type: in vivo, mice
Description: as §3

Stability at 37° C. = type: physicochemical; details: for degradation: after two weeks at 37° C.
Description: as §3

[6] = cited from earlier work
[7] = 50 mcg TiterQuil-1055, 20 mcg QS-21, Adacel 2.5 mcg pertussis toxin

## CC1O[C@@H](OC2C(O)[C@@H](NC(=O)CCCCCCCCCCC(=O)O)C(CO)O[C@H]2OC(=O)[C@]23CCC(C)(C)CC2C2=CCC4C5(C)CC[C@H](O)C(C)(C=O)[C@@H]5CC[C@@]4(C)C2(C)CC3O)C(O)C(O)[C@H]1O[C@@H]1OC[C@@H](O)C(O)C1O (stereo partly shown) [TiterQuil-1055]
Mice [1]; Adacel with TiterQuil-1055, 2 weeks after the first reading
  antibody levels 2 weeks later: further increased
Mice [1]; groups of 5 mice
  augmentation of antibody levels compared to immunization with Adacel alone: 70 fold
Mice [1]; pharm/tox study, groups of 5 mice, Adacel alone or Adacel with TiterQuil-1055
  antibody levels 2 weeks after the second SC immunization: 52,344
Mice [2]; 10 mcg TiterQuil-1055 mixed with 0.3 mcg Engerix-B
  increase in antibody levels compared to Engerix-B alone: no serologic effect
Mice [2]; 30 mcg TiterQuil-1055 mixed with 0.3 mcg Engerix-B
  increase in antibody levels compared to Engerix-B alone: > 6 fold
Mice [2]; 100 mcg TiterQuil-1055 mixed with 0.3 mcg Engerix-B
  increase in antibody levels compared to Engerix-B alone: 5 fold
Mice [2]; TiterQuil-1055 doses above 50 mcg per mouse
  antibody response at high adjuvant doses: Lack of antibody increase or decreasing responses
[3]; 30 mcg TiterQuil-1055 dose
  weight loss: No weight loss
[3]; 100 mcg TiterQuil-1055 dose
  weight loss: 4%
[3]; 300 mcg TiterQuil-1055 dose
  weight loss: 5%
Mice [4]; mice vaccinated SC days 1 and 15, weighed daily, 50 mcg TiterQuil-1055, 20 mcg QS-21, Adacel 2.5 mcg pertussis toxin
  weight loss: no other mice
Mice [4]; [7]
  changes in blood chemistry or hematology results: No changes
  liver histopathology (hepatocellular cytoplasmic vacuolization / vacuolar changes): No changes at all
Mice [4]
  weight loss (body weight): No weight loss
hemolysis
  hemolytic activity: much lower or undetectable hemolytic activity
[5]
  body mass gained on average: 5%
Stability at 37° C.
  degradation: without detectable degradation
Stability at 37° C.; compared with QS-21
  stability: increased stability

## QS-21 [reference compound]
Mice [1]; groups of 5 mice
  augmentation of antibody levels compared to immunization with Adacel alone: 10 fold
Mice [4]; [7]
  changes in blood chemistry or hematology results: No changes
  liver histopathology (hepatocellular cytoplasmic vacuolization / vacuolar changes): Mild vacuolar changes
Mice [4]
  weight loss (body weight): 8-9%
hemolysis
  hemolytic activity: highly hemolytically active
[5]; 20 mcg QS-21
  body mass lost on average: 8-10%
Stability at 37° C.
  degradation: 20%
[6]; cancer patients, above it local and systemic side effects
  tolerated (maximum) dose in cancer patients: 100 to 150 µg
[6]; healthy patients
  maximum dose for healthy patients: ~50 µg
[6]; well (non-cancer) adult and child recipients
  highest practical tolerable dose: 25 to 50 µg

Reference: patent US20230357300A1, “TRITERPENE SAPONIN SYNTHESIS, INTERMEDIATES AND ADJUVANT COMBINATIONS” (priority 2017, published 2023)
